Test results reported in the NIST ThermoML archive (doi:10.1021/je3009073).
Numbers after ± are expanded uncertainties.

Key:
[1] = xn = mol fraction of the nth substance listed; details: 101 kPa, Liquid, x1 = 1; for viscosity: Capillary tube (Ostwald / Ubbelohde) method; for mass density: Pycnometric method
[2] = 101.33 kPa, Liquid; for viscosity: Capillary tube (Ostwald / Ubbelohde) method; for mass density: Pycnometric method

Row | Compound | viscosity ([1]; 303.15 K) | viscosity ([1]; 308.15 K) | viscosity ([1]; 313.15 K) | viscosity ([1]; 318.15 K) | viscosity ([1]; 323.15 K) | mass density ([1]; 323.15 K) | viscosity ([1]; 328.15 K) | mass density ([1]; 328.15 K) | viscosity ([2]; 303.15 K) | mass density ([2]; 303.15 K) | viscosity ([2]; 308.15 K) | mass density ([2]; 308.15 K) | viscosity ([2]; 313.15 K) | mass density ([2]; 313.15 K) | viscosity ([2]; 318.15 K) | mass density ([2]; 318.15 K) | viscosity ([2]; 323.15 K) | mass density ([2]; 323.15 K) | viscosity ([2]; 328.15 K) | mass density ([2]; 328.15 K)
1 | O [water] + CC(O)C(=O)[O-].[NH3+]CCO | 0.8 ± 0.03 mPa·s | 0.72 ± 0.03 mPa·s | 0.65 ± 0.03 mPa·s | 0.6 ± 0.02 mPa·s | 0.55 ± 0.02 mPa·s | 988 ± 2 kg/m3 | 0.5 ± 0.02 mPa·s | 985.7 ± 2 kg/m3 |  |  |  |  |  |  |  |  |  |  |  | 
2 | O [water] + CC(O)C(=O)[O-].CN(C)C(N)=[N+](C)C | 0.8 ± 0.03 mPa·s | 0.72 ± 0.03 mPa·s | 0.65 ± 0.03 mPa·s | 0.6 ± 0.1 mPa·s | 0.55 ± 0.02 mPa·s | 988 ± 2 kg/m3 | 0.5 ± 0.02 mPa·s | 985.7 ± 2 kg/m3 |  |  |  |  |  |  |  |  |  |  |  | 
3 | NCCO [2-aminoethan-1-ol] |  |  |  |  |  |  |  |  | 14.55 ± 0.61 mPa·s | 1007.9 ± 2 kg/m3 | 11.86 ± 0.5 mPa·s | 1004.2 ± 2 kg/m3 | 9.65 ± 0.41 mPa·s | 1000.5 ± 2.1 kg/m3 | 7.91 ± 0.33 mPa·s | 996.2 ± 2.1 kg/m3 | 6.72 ± 0.28 mPa·s | 992.7 ± 2.1 kg/m3 | 5.74 ± 0.24 mPa·s | 988.7 ± 2.1 kg/m3
